Values of other authors in US20050272704A1, “Compounds, compositions and methods for stabilizing transthyretin and inhibiting transthyretin misfolding” (priority 2004, published 2005).
Read-outs that look alike come from different tables or passages of the source.

O=C(O)c1cc(-c2ccc(F)cc2F)ccc1O [diflunisal]
diflunisal concentration in blood (4 h after a single 500 mg dose): > 300 µM | diflunisal concentration in blood (20 h after a single 500 mg dose): exceed 30 μM
